The assay has as its target T1, partially purified aldose reductase enzyme obtained from human placenta (Homo sapiens, UniProt P15121).
T1 construct: partially purified aldose reductase enzyme obtained from human placenta; from tissue; host or cells: human placenta
Nature of the assay: inhibition of aldose reductase enzyme activity (procedure of S. Hayman et al. as modified by K. Sestanj et al.). The format is biochemical. The following applies: read-out: Percent Inhibition (%) of aldose reductase enzyme activity; for inhibition at 10 µM: 10^-5 M; for inhibition at 1 µM: 10^-6 M; for inhibition at 0.1 µM: 10^-7 M. The source says: Hayman et al., as described in the Journal of Biological Chemistry, Vol. 240, p. 877 (1965) and as modified by K. Sestanj et al. in U.S. Pat. […] In every case, the substrate employed was partially purified aldose reductase enzyme obtained from human placenta.

The term inhibition denotes the drop in the measured response relative to a control, in per cent.

As to `O=C(O)Cc1nn(Cc2nc3cc(C(F)(F)F)ccc3s2)c(=O)c2cccnc12` [Example 15, 6-(5-trifluoromethylbenzothiazole-2-ylmethyl) -5-oxo-6H-pyrido[2,3-d]pyridazine-8-ylacetic acid], the inhibition at 10 µM was found to be 88%, the inhibition at 1 µM worked out at 81% and the inhibition at 0.1 µM was found to be 74%.

For `O=C(O)Cc1nn(Cc2nc3cc(F)cc(F)c3s2)c(=O)c2cccnc12` [Example 17], the inhibition at 10 µM was 75%, the inhibition at 1 µM was determined as 65% and the inhibition at 0.1 µM was 39%.

For the compound `O=C(O)Cc1nn(Cc2noc(-c3ccccc3C(F)(F)F)n2)c(=O)c2cccnc12` [Example 20, 6-[5-(2-trifluoromethylphenyl)-1,2,4-oxadiazole-3-ylmethyl]-5-oxo-6H-pyrido[2,3-d]pyridazine-8-ylacetic acid], the inhibition at 10 µM came out at 77%, the inhibition at 1 µM stood at 72% and the inhibition at 0.1 µM is 43%.

`O=C(O)Cc1nn(Cc2ccc(Br)cc2F)c(=O)c2cccnc12` [Example 21, 6-(4-bromo-2-fluorobenzyl)-5-oxo-6H-pyrido[2,3-d]pyridazine-8-ylacetic acid]: the inhibition at 10 µM was 86%, the inhibition at 1 µM stood at 76% and the inhibition at 0.1 µM worked out at 30%.

Regarding `O=C(O)Cc1nn(Cc2nc3cc(F)ccc3s2)c(=O)c2cccnc12` [Example 16, 6-(5-fluorobenzothiazole-2-ylmethyl)-5-oxo-6H-pyrido[2,3-d]pyridazine-8-ylacetic acid], the inhibition at 10 µM was 94%, the inhibition at 1 µM amounted to 91% and the inhibition at 0.1 µM worked out at 90%.

Regarding `O=C(O)Cc1nn(Cc2nc3cc(Br)ccc3o2)c(=O)c2cccnc12` [Example 18, 6-(5-bromobenzoxazole-2-ylmethyl)-5-oxo-6H-pyrido[2,3-d]pyridazine-8-ylacetic acid], the inhibition at 10 µM was 93%, the inhibition at 1 µM stood at 87% and the inhibition at 0.1 µM turned out to be 31%.

For the compound `O=C(O)Cc1nn(Cc2cc3c(Cl)cccc3s2)c(=O)c2cccnc12` [Example 19, 6-(4-chlorobenzothiophene-2-ylmethyl)-5-oxo-6H-pyrido[2,3-d]pyridazine-8-ylacetic acid], the inhibition at 10 µM turned out to be 80%, the inhibition at 1 µM came to 60% and the inhibition at 0.1 µM came to 8%.

The values above are taken from patent US4996204A, “Pyrido[2,3-d]pyridazinones as aldose reductase inhibitors” (Pfizer Inc., priority 1989, dated 1991).
